According to patent publication US7196084B2, “Cdc25 phosphatase inhibitors” (Societe de Conseils de Recherches et d'Applications …, priority 2000, dated 2007):
Where a name gives a salt, the structure may show the parent alone.

Columns and labels:
[1] = test system: phosphorylation of cdc2 in the Mia PaCa-2 line (endogenous cdc25C phosphatase of human cells); test: Measurement of the state of cdc2 phosphorylation (western blot); type: cell-based; conditions: Mia-Paca2 cells treated with increasing concentrations, sampling 24 hours later, FIG. 1; menadione as reference inhibitor
Procedure: b) Measurement of the State of cdc2 Phosphorylation:
This relates to showing that the enzymatic activity of cdc25-C phosphatase is inhibited in vivo […] in the presence of selected inhibitors.
The cells of the Mia PaCa2 line are seeded at a rate of 450 000 cells in 10 cm Petri dishes in Dulbecco's modified Eagle medium completed with 10% foetal calf serum. 48 hours later, the cells are treated for 1 hour with the compound to be tested or menadione at 100 μM (reference inhibitor). The medium is renewed after washing with PBS. 24 hours after the cells are scraped and lysed in the lysis buffer (Hepes 50 mM pH 7.5; NaCl 10 mM; Triton X100 1%; glycerol 10%; MgCl2 5 mM; EDTA 1 mM; sodium orthovanadate 1 mM; protease inhibitor cocktail 1836170 Roche Diagnostics). After centrifugation at 13 000 rpm for 10 minutes at 4° C., the concentration of proteins is determined in the supernatant (Bio-Rad DC Protein assay kit) and adjusted to 10 μg. The load buffer concentrated 5 times (Tris HCl 125 mM pH 7.4; SDS 10%; glycerol 50%; bromophenol blue 0.025%; β-mercaptoethanol 7%) is added to the samples. The samples are heated for 10 minutes at 100° C. The samples are deposited in a volume of 40 μl on Tris/Glycine 12% gels (BioRad). Migration occurs over 1 hour at 180 V. The proteins are transferred onto a nitrocellulose membrane (Hybond C, Amersham) under semi-dry conditions. […]

[2] = test system: Mia-PaCa2 (human pancreatic cancer cells); test: Anti-proliferative activity, WST1 colorimetric test, Mia-PaCa2; type: cell-based; conditions: MIA PaCa-2, treated for 96 hours, read-out: IC50 on the cell proliferation of Mia-Paca2 lines
Procedure: (§1) c) Characterization of the Anti-proliferative Activity:
(§2) By way of example, the effect of a treatment on two lines of human Mia-Paca2 and DU145 cells with compounds of Examples 1–5 described previously will be studied. The cell lines DU145 (human prostate cancer cells) and Mia-PaCa2 (human pancreatic cancer cells) were acquired from the American Tissue Culture Collection (Rockville, Md., USA). The cells placed in 80 μL of Dulbecco's modified Eagle medium (Gibco-Brl, Cergy-Pontoise, France) completed with 10% foetal calf serum inactivated by heating (Gibco-Brl, Cergy-Pontoise, France), 50000 units/l of penicillin and 50 mg/l streptomycin (Gibco-Brl, Cergy-Pontoise, France), and 2 mM of glutamine (Gibco-Brl, Cergy-Pontoise, France) were seeded on a 96-well plate on day 0. The cells were treated on day 1 for 96 hours with increasing concentrations of each of the compounds to be tested up to 50 μg/ml. At the end of this period, quantification of cell proliferation is evaluated by a colorimetric test based on the cleavage of the tetrazolium salt WST1 by mitochondrial dehydrogenases in viable cells leading to the formation of formazan (Boehringer Mannheim, Meylan, France). These tests are carried out in duplicate with 8 determinations per concentration tested. For each compound to be tested, the values included in the linear part of the sigmoid were retained for linear regression analysis and used to estimate the inhibitory concentration IC50. The products are solubilized in dimethylsulphoxide (DMSO) at 10^−2 M and finally used in culture with 0.5% DMSO.

[3] = test system: DU145 (human prostate cancer cells); test: Anti-proliferative activity, WST1 colorimetric test, DU145; type: cell-based; conditions: DU-145, treated for 96 hours, read-out: IC50 on the cell proliferation of DU-145 lines
Procedure: as §1, §2

| Compound | IC50 [2] [µM] | melting point [°C] | IC50 [3] [µM] | increase of the phosphorylated form of cdc2 [1] |
| --- | --- | --- | --- | --- |
| COc1cc(N(C)C)cc(CN(C)CCc2ccc([N+](=O)[O-])cc2)c1O [Example 1, 4-(dimethylamino)-2-methoxy-6-({methyl[2-(4-nitrophenyl)ethyl]-amino}methyl)phenol] | ≤ 100 | 91 to 93 | – | growing increase of the phosphorylated form of cdc2 |
| CN(CCc1ccc([N+](=O)[O-])cc1)Cc1cc(N(C)C)ccc1O [Example 2, 4-(dimethylamino)-2-({methyl[2-(4-nitrophenyl)ethyl]amino}methyl)phenol] | ≤ 100 | – | – | – |
| CN(C)c1ccc(NC(=O)CCNCc2cccc(N=C(N)c3cccs3)c2)cc1 [Example 4, 3-[(3-{[amino(2-thienyl)methylidene]amino}-benzyl)amino]-N-[4-(dimethylamino)phenyl]propanamide hydrochloride] | ≤ 100 | – | – | – |
| CN1CCN(c2ccc(NC(=O)CCCc3ccc(N)cc3)cc2)CC1.Cl [Example 5, 4-(4-aminophenyl)-N-[4-(4-methyl-1-piperazinyl)phenyl]butanamide hydrochloride] | – | 156 to 158 | – | – |
| COc1cc(N(C)C)cc(CNCCc2ccc([N+](=O)[O-])cc2)c1O [Example 6, 4-(dimethylamino)-2-methoxy-6-({[2-(4-nitrophenyl)ethyl]amino}methyl)phenol] | ≤ 100 | – | – | – |
| CN(C)c1ccc(O)c(CNCCc2ccc([N+](=O)[O-])cc2)c1 [Example 7, 4-(dimethylamino)-2-({[2-(4-nitrophenyl)ethyl]amino}methyl)phenol] | ≤ 100 | – | – | – |
| CN(CCc1ccc([N+](=O)[O-])cc1)Cc1cc(O)ccc1O [Example 9, 2-({methyl [2-(4-nitrophenyl)ethyl]amino}methyl)-1,4-benzenediol] | ≤ 100 | – | – | – |
| CCOP(=O)(OCC)Oc1ccc(CCNC(=O)c2cc3cc(O)ccc3cc2O)cc1 [Example 13, diethyl 4-{2-[(3,7-dihydroxy-2-naphthoyl)amino]ethyl}phenylphosphate] | ≤ 100 | 192 to 194 | ≤ 100 | – |
| CC1=CC(=O)c2ccccc2C1=O [menadione, reference compound] | – | – | – | increase |

Now from value to molecule, other results behind:

| IC50 [2] [µM] | melting point [°C] | IC50 [3] [µM] | Compound | increase of the phosphorylated form of cdc2 [1] |
| --- | --- | --- | --- | --- |
| ≤ 100 | – | – | COc1cc(CN(C)CCc2ccc([N+](=O)[O-])cc2)cc(N(C)C)c1O [Example 8, 2-(dimethylamino)-6-methoxy-4-({methyl[2-(4-nitrophenyl)ethyl]amino}methyl)phenol] | – |
| ≤ 100 | – | – | COc1cc(N(C)C)cc(CN(C)CCc2ccc([N+](=O)[O-])cc2)c1OC(C)=O [Example 10, 4-(dimethylamino)-2-methoxy-6-({methyl[2-(4-nitrophenyl)ethyl]amino}methyl)phenyl acetate] | – |
| ≤ 100 | > 250 | – | O=C(NCCc1ccc([N+](=O)[O-])cc1)c1cc2cc(O)ccc2cc1O [Example 11, 3,7-dihydroxy-N-[2-(4-nitrophenyl)ethyl]-2-naphthamide] | – |
| ≤ 100 | – | ≤ 100 | NS(=O)(=O)c1ccc(CCNC(=O)c2cc3cc(O)ccc3cc2O)cc1 [Example 14, N-{2-[4-(aminosulphonyl)phenyl]ethyl}-3,7-dihydroxy-2-naphthamide] | – |
| ≤ 100 | 176 to 178 | – | CS(=O)(=O)Nc1ccc(CCNC(=O)c2cc3cc(O)ccc3cc2O)cc1 [Example 16, 3,7-dihydroxy-N-(2-{4-[(methylsulphonyl)amino]phenyl}ethyl)-2-naphthamide] | – |
| ≤ 100 | 193 to 195 | – | CCCCS(=O)(=O)Nc1ccc(CCNC(=O)c2cc3cc(O)ccc3cc2O)cc1 [Example 17, N-(2-{4-[(butylsulphonyl)amino]phenyl}ethyl)-3,7-dihydroxy-2-naphthamide] | – |
| ≤ 100 | 182 to 184 | – | Cc1ccc(S(=O)(=O)Nc2ccc(CCNC(=O)c3cc4cc(O)ccc4cc3O)cc2)cc1 [Example 18, 3,7-dihydroxy-N-[2-(4-{[(4-methylphenyl)sulphonyl]amino}phenyl)ethyl]-2-naphthamide] | – |
| ≤ 100 | – | ≤ 100 | O=C(NCCc1ccc(NS(=O)(=O)c2cccc(C(F)(F)F)c2)cc1)c1cc2cc(O)ccc2cc1O [Example 22, 3,7-dihydroxy-N-{2-[4-({[3-(trifluoromethyl)phenyl]sulphonyl}amino)phenyl]ethyl}-2-naphthamide] | – |
| ≤ 100 | – | – | O=C(NCCc1ccc(NS(=O)(=O)c2ccc(F)cc2)cc1)c1cc2cc(O)ccc2cc1O [Example 28, N-[2-(4-{[(4-fluorophenyl)sulphonyl]amino}phenyl)ethyl]-3,7-dihydroxy-2-naphthamide] | – |
| ≤ 100 | – | – | CC1CCN(S(=O)(=O)c2cccc(CNC(=O)c3cc4cc(O)ccc4cc3O)c2)CC1 [Example 29, 3,7-dihydroxy-N-{3-[(4-methyl-1-piperidinyl)sulphonyl]benzyl}-2-naphthamide] | – |
| ≤ 100 | 145 to 148 | – | CN(C)c1ccccc1NC(=O)CCCCc1ccc(/N=C(/N)c2cccs2)cc1.Cl [Example 30, 5-(4-{[(1E)-amino(2-thienyl)methylidene]amino}phenyl)-N-[2-(dimethylamino)phenyl]pentanamide hydrochloride] | – |
| ≤ 100 | 135 to 137 | – | Cc1ccc(S(=O)(=O)N2CCN(C(=O)c3cc4cc(O)ccc4cc3O)CC2)cc1 [Example 31, 3-({4-[(4-methylphenyl)sulphonyl]piperazin-1-yl}carbonyl) naphthalene-2,6-diol] | – |
| – | 124 to 126 | – | CS(=O)(=O)N1CCN(C(=O)c2cc3cc(O)ccc3cc2O)CC1 [Example 32, 3-{[4-(methylsulphonyl)piperazin-1-yl]carbonyl}naphthalene-2,6-diol] | – |
| – | 105 to 110 | – | CCCCS(=O)(=O)N1CCN(C(=O)c2cc3cc(O)ccc3cc2O)CC1 [Example 33, 3-{[4-(butylsulphonyl)piperazin-1-yl]carbonyl}naphthalene-2,6-diol] | – |
